Legend:
Assay type in all cases: in vivo, rat
[1] = system: PKC (α, β, γ and ε); assay: Translocation of PKC isoforms α, β, γ and ε in particulate and cytosolic heart fractions (Western immunoblotting); conditions: 24 h after GGA 200 mg/kg oral or vehicle; chelerythrine 5 mg/kg i.v. pretreatment, FIG. 10
[2] = system: isolated perfused heart; assay: Isolated perfused heart experiments (Langendorff, 20 min no-flow global ischemia, 30 min reperfusion), Example 2
Protocol: (§1) Male Sprague-Dawley rats (220-250 g) were used. GGA, as an emulsion with 5% gum arabic and 0.008% tocopherol, was given orally at a dose of 200 mg/kg. Rats were classified into 4 groups. FIG. 7 is a diagrammatic representation of experimental protocol. […] Twenty-four hours after oral administration of GGA or vehicle, rats were anesthetized (sodium pentobarbital, 50 mg/kg IP) and heparinized (500 IU/kg IP). Hearts were excised, immediately frozen in liquid nitrogen, and stored at −70° C. until use for Western blot analysis (n=4 for each group). To examine the cardiac function during ischemia and reperfusion, hearts of each group were prepared for isolated perfused experiments using Langendorff apparatus (n=7-9 for each group, FIG. 7).
Twenty-four hours after administration-of 200 mg/kg of GGA or vehicle, rats of 4 groups were heparinized (500 IU/kg, IP) and anesthetized with sodium pentobarbital (50 mg/kg, IP). Each heart was isolated and perfused retrogradely using the Langendorff method with Krebs-Henseleit buffer (pH 7.4, [in mM] 118 NaCl, 4.7 KCl, 2.5 CaCl2, 1.2 MgSO4, 1.2 KH2PO4, 25.0 Na2HCO3, 11.0 glucose) equilibrated with 95% O2-5% CO2 gas mixture at 36.5° C. at a constant pressure of 75 mm Hg. A water-filled latex balloon was inserted through the mitral orifice into the left ventricle (LV) and the LV end-diastolic pressure (LVEDP) was adjusted to 0-5 mm Hg. During the initial 10 min of constant pressure perfusion, the perfusion flow rate was determined for each heart, which was then perfused at a determined perfusion rate using a microtube pump while the heart was covered with water-jacketed glassware and the relative humidity maintained at 90% or more. Normothermic no-flow global ischemia was initiated for 20 min, followed by reperfusion for 30 min. The coronary effluent during the 30 min of reperfusion period was collected for measurement of creatine kinase content (released CK).
LV pressure was monitored using a pressure transducer to obtain the peak positive and negative first derivatives of LV pressure (dP/dtmax and dP/dtmin). […] Coronary perfusion pressure (CPP) was defined as the hydraulic pressure measured at the level of aortic cannulation. LV pressure, CPP and electrocardiogram were continuously recorded on a polygraph recorder (WS-681G, Nihon Kohden) and stored on a PCM data recorder (RD-111T, TEAC) for later analysis.
Data are expressed as mean ±SEM. Serial changes in LVDP, LVEDP, CPP, and dP/dt were analyzed by two-way analysis of variance (ANOVA) followed by the Bonferroni/Dunn test, unless otherwise specified. Comparisons among groups with respect to the hemodynamic parameters at baseline and the ratio of released CK to ventricular weight were analyzed by one-way ANOVA followed by the Bonferroni/Dunn test. […]

[3] = system: heat shock factor 1 (HSF1); assay: HSF1 phosphorylation and translocation in cytosolic and nuclear heart fractions (Western immunoblotting); conditions: 24 h after GGA 200 mg/kg oral or vehicle; chelerythrine 5 mg/kg i.v. pretreatment, FIG. 9
Protocol: as §1, with “To examine the cardiac function during ischemia and reperfusion, hearts of each group were prepared for isolated perfused experiments using Langendorff apparatus (n=7-9 for each group, FIG. 7).” left out
(§2) To analyze the expression of HSP70, the frozen heart samples were homogenized with SDS sample buffer (pH 6.8, 20% glycerol, 6% SDS, 0.12M Tris), centrifuged and boiled (Maloyan A, Palmon A, Horowitz M. Heat acclimation increases the basal HSP70 level and alters its production dynamics during heat stress. Am J Physiol. 1999; 276:R1506-R1515.). […] The total protein concentration of heart was quantified by the Bradford method (Bradford MM. A rapid and sensitive method for quantitation of microgram quantities of protein utilizing the principle of protein-dye binding. Anal. Biochem. 1976;72:248-254). […] The proteins were detected by ECL with exposure to Hyperfilm (Amersham Pharmacia). The amount of protein on the immunoblots was quantified using National Institutes of Health image software. […]

[4] = system: HSP70; assay: Effect of chelerythrine pretreatment on GGA-induced HSP70 expression in the heart (Western immunoblotting), Example 2; conditions: 24 h after GGA 200 mg/kg oral or vehicle; chelerythrine 5 mg/kg i.v. pretreatment, FIG. 8
Protocol: as §1, with “To examine the cardiac function during ischemia and reperfusion, hearts of each group were prepared for isolated perfused experiments using Langendorff apparatus (n=7-9 for each group, FIG. 7).” left out
as §2

[5] = system: PKCδ; assay: Translocation of PKCδ in particulate and cytosolic heart fractions (Western immunoblotting); conditions: 24 h after GGA 200 mg/kg oral or vehicle; chelerythrine 5 mg/kg i.v. pretreatment, FIG. 10

SMILES: COc1ccc2c(c[n+](C)c3c4cc5c(cc4ccc23)OCO5)c1OC [chelerythrine, reference compound]
- PKC isoforms α, β, γ and ε in cytosolic and particulate fractions [1]: not influenced
- released creatine kinase (CK) relative to ventricular weight ([2]; 30-min reperfusion period after 20 min ischemia, FIG. 12): similar
- recovery of LVDP, LVEDP and dP/dt on reperfusion versus CNT group ([2]; 20 min no-flow global ischemia, 30 min reperfusion, FIG. 11): similar
- amount of phosphorylated form of HSF1 in the nuclear fraction [3]: did not significantly influence
- HSP70 expression in the heart (relative density to control group) [4]: did not influence
- PKCδ in the particulate fraction / particulate/cytosol ratio versus CNT group [5]: did not influence
